Test results: PubChem BioAssay (NCI)
Where “and” joins values, the source holds several entries; their conditions need not be identical. Identical values can stand only once.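 Five concentrations, 48 hours, 96-well plates. GI50: concentration for 50% inhibition of growth. At the TGI there is no net growth.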

Legend:
Assay in all cases: NCI anticancer screen, dose series, 48 h
SR leukemia = test system: SR leukemia
NCI-H226 lung = test system: NCI-H226 lung
SNB-75 CNS = test system: SNB-75 CNS
U251 CNS = test system: U251 CNS
RXF 393 renal = test system: RXF 393 renal
SN12C renal = test system: SN12C renal
SK-MEL-5 melanoma = test system: SK-MEL-5 melanoma
HL-60(TB) leukemia = test system: HL-60(TB) leukemia
EKVX NSCLC = test system: EKVX NSCLC
NCI/ADR-RES ovarian = test system: NCI/ADR-RES ovarian
OVCAR-8 ovarian = test system: OVCAR-8 ovarian
BT-549 breast = test system: BT-549 breast

Structure (SMILES)	GI50 (SR leukemia)	GI50 (NCI-H226 lung)	TGI (NCI-H226 lung)	GI50 (SNB-75 CNS)	GI50 (U251 CNS)	TGI (U251 CNS)	GI50 (RXF 393 renal)	GI50 (SN12C renal)	GI50 (SK-MEL-5 melanoma)	GI50 (HL-60(TB) leukemia)	TGI (EKVX NSCLC)	TGI (SNB-75 CNS)	TGI (NCI/ADR-RES ovarian)	TGI (RXF 393 renal)	TGI (SN12C renal)	TGI (OVCAR-8 ovarian)	TGI (SK-MEL-5 melanoma)	TGI (BT-549 breast)	TGI (HL-60(TB) leukemia)	TGI (SR leukemia)
COc1cc([C@@H]2c3cc4c(c(O)c3C[C@H]3COC(=O)[C@@H]32)OCO4)cc(OC)c1OC	1.46 µM and 0.812 µM	0.364 µM	150 µM and 19.6 µM	0.0203 µM	0.183 µM	> 100 µM	0.281 µM	0.581 µM	0.0407 µM	0.582 µM										
O=C(c1cc2ccccc2[nH]1)N1C2CCC1CN(CCOC(c1ccc(F)cc1)c1ccc(F)cc1)CC2 (stereo not drawn)			> 100 µM			> 100 µM					> 100 µM	> 100 µM	> 100 µM	8.41 µM	> 100 µM	> 100 µM	> 100 µM	> 100 µM	> 100 µM	
COC(=O)[C@H](Cc1ccccc1)NC(=O)/C(=C/C(C)C)NC(=O)[C@H](CCSC)NC=O			> 100 µM			> 100 µM					> 100 µM	> 100 µM		> 100 µM	> 100 µM	> 100 µM	> 100 µM		> 100 µM	> 100 µM
COc1ccc(CC2C3=C(CCN2C(=O)C2CCC2)CC2(CC3)OCCO2)cc1O (stereo not drawn)			> 100 µM			> 100 µM					> 100 µM	52.4 µM	42.2 µM	37.5 µM	> 100 µM	> 100 µM	> 100 µM		76.9 µM	> 100 µM
CCN1CCCC(C#N)(c2ccccc2)CC1 (stereo not drawn)						> 100 µM					> 100 µM	> 100 µM	> 100 µM	> 100 µM		> 100 µM	> 100 µM		> 100 µM	> 100 µM
N#C[C@H](C(=O)c1ccccc1F)c1nc2ccccc2s1			> 100 µM			> 100 µM					> 100 µM	> 100 µM	> 100 µM	> 100 µM	> 100 µM	> 100 µM	> 100 µM	> 100 µM	79.2 µM	
O=C(CC(CC(=O)Oc1c(Br)cc(Br)cc1C(=O)O)C(=O)Oc1c(Br)cc(Br)cc1C(=O)O)Oc1c(Br)cc(Br)cc1C(=O)O			57 µM			> 100 µM					> 100 µM	93.3 µM			> 100 µM	99.6 µM	> 100 µM		96.6 µM	
O=C1C(C(O)(C(F)(F)Cl)C(F)(F)Cl)CCCC1C(O)(C(F)(F)Cl)C(F)(F)Cl (stereo not drawn)			> 10 µM			> 10 µM					> 10 µM		> 10 µM	> 10 µM		> 10 µM	> 10 µM	> 10 µM		
CCOc1ccc(N/C(=C(/C(Cl)=C(/Cl)Nc2ccccc2)[N+](=O)[O-])n2nnc3ccccc32)cc1			> 100 µM			33.6 µM					> 100 µM	> 100 µM	53.7 µM		47.2 µM		37 µM	28.7 µM		
CC(C)C1OC(N)=C(C#N)C1(C#N)C#N (stereo not drawn)			> 100 µM			> 100 µM					> 100 µM	> 100 µM	> 100 µM	> 100 µM	> 100 µM	> 100 µM	> 100 µM		35.5 µM	
Cc1[nH]c(=O)nc2c1C(NCCCN(C)C)c1cc(Cl)ccc1N2 (stereo not drawn)			31 µM			29.3 µM					30.1 µM	26.2 µM		27 µM	28.2 µM	28.7 µM			34.4 µM	27.3 µM
Cc1cc([N+](=O)[O-])ccc1Sc1c2ccccc2nc2cc(Cl)ccc12			> 100 µM			80.7 µM					> 100 µM	89.7 µM		> 100 µM	92.7 µM	57.3 µM	> 100 µM		51 µM	> 100 µM
COC(=O)CCC(NC(=S)N/N=C/c1ccccn1)C(=O)OC (stereo not drawn)			> 100 µM			> 100 µM					> 100 µM	> 100 µM		> 100 µM	> 100 µM	> 100 µM	> 100 µM		> 100 µM	> 100 µM
CC(=O)OC1CC2CCN3C(=O)c4cc5c(cc4[C@H](C1OC(C)=O)C23)OCO5 (stereo partly drawn)			> 100 µM			> 100 µM					> 100 µM	> 100 µM		> 100 µM	> 100 µM	> 100 µM			> 100 µM	> 100 µM
CC(C)(C)OC(=O)N[C@H]1CC(O)c2ccccc2N(CC(=O)O)C1=O (stereo partly drawn)			> 100 µM								> 100 µM	> 100 µM		> 100 µM	> 100 µM	> 100 µM	> 100 µM		> 100 µM	> 100 µM
CCN(CC)Cc1cc(Nc2c3ccccc3nc3c2[nH]c2ccccc23)cc(CN(CC)CC)c1O			6.01 µM			2.19 µM					3.12 µM	2.97 µM		1.25 µM	2.18 µM	2.89 µM	2.95 µM	2.83 µM	> 100 µM	
